In this test the test system is m2 receptor. Kind of test: Expression of m2 receptors on CHO cells transfected with DNA for the m2 receptor (tritiated QNB binding). In kind it is cell-based. More on the design: key: Active: “active” means increase over the control; Inactive: “inactive” means same effect as control. The settings on record: DMSO control, range of final concentrations. From the text: Substituted sapogenins of the present invention have also been tested for activity in a number of in-vitro assays. The assays/experiments that were considered of key importance in determining possible activity in the elevation of membrane bound receptor numbers were as follows: • Chinese hamster ovary (CHO) cells transfected with the a DNA fragment coding for a muscarinic receptor. The cell line used for the majority of the experiments was a cell line expressing the m2 receptor. The methods and the results of these experiments are now described in turn.
The effects of various compounds on the expression of m2 receptors on CHO cells transfected with DNA for the m2 receptor were investigated. Receptor numbers were assayed using tritiated QNB binding and subtracting non-specific binding. Compounds were dissolved in DMSO and DMSO was used as a control. Compounds were tested at a range of final concentrations. Compounds were also tested in the presence and absence of tamoxifen to try to distinguish an oestrogen receptor mediated mechanism The results are summarised in the Table I below.
Turning to `C[C@@H]1CC[C@@]2(OC1)O[C@H]1C[C@H]3[C@@H]4CC[C@H]5C[C@H](F)CC[C@]5(C)[C@H]4CC[C@]3(C)[C@H]1[C@@H]2C` [3α-fluoro-5α,20α,22α,25R-spirostane], the “Effect on receptor expression” value is “Inactive”.
Regarding `C[C@@H]1CC[C@@]2(OC1)O[C@H]1C[C@H]3[C@@H]4CC[C@@H]5C[C@H](NS(C)(=O)=O)CC[C@]5(C)[C@H]4CC[C@]3(C)[C@H]1[C@@H]2C` [3α-methylsulphonylamino-5β,20α,22α,25R-spirostane], the “Effect on receptor expression” value is “Active”.
Turning to `C[C@@H]1CC[C@@]2(OC1)O[C@H]1C[C@H]3[C@@H]4CC[C@@H]5C[C@@H](F)CC[C@]5(C)[C@H]4CC[C@]3(C)[C@H]1[C@@H]2C` [3β-fluoro-5β,20α,22α,25R-spirostane], the “Effect on receptor expression” value was “Active”.
With `C[C@@H]1CC[C@@]2(OC1)O[C@H]1C[C@H]3[C@@H]4CC[C@@H]5CC(F)(F)CC[C@]5(C)[C@H]4CC[C@]3(C)[C@H]1[C@@H]2C` [3,3-difluoro-5β,20α,22α,25R-spirostane], the “Effect on receptor expression” value is reported as “Active”.
The result for `C[C@H]1[C@H]2[C@H](C[C@H]3[C@@H]4CC[C@@H]5C[C@@H](O)CC[C@]5(C)[C@H]4CC[C@]23C)O[C@]12CCC(C)(C)CO2` [25-methyl-5β,20α,22α-spirostane-3β-ol] reads “Active”; that for `C[C@@H]1CC[C@@]2(OC1)O[C@H]1C[C@H]3[C@@H]4CC[C@@H]5C[C@H](N)CC[C@]5(C)[C@H]4CC[C@]3(C)[C@H]1[C@@H]2C` [3α-amino-5β,20α,22α,25R-spirostane], “Active”; that for `CC1CCC2(OC1)OC1CC3C4CCC5CC(N=[N+]=[N-])CCC5(C)C4CCC3(C)C1C2C` (stereo not drawn) [3α-azido-5β,20α,22α,25R-spirostane], “Active”.

The values are drawn from patent US20100087411A1, “SUBSTITUTED SAPOGENINS AND THEIR USE” (Phytopharm PLC, priority 2000, published 2010).
